What is called IC50 is the concentration that inhibits the measured activity by half.

In ChEMBL document CHEMBL1147072, “Synthesis and evaluation of transthyretin amyloidosis inhibitors containing carborane pharmacophores” (Proc Natl Acad Sci U S A, 2007) one finds Activity and IC50 data, which are given here for 1 compound.

For test [1], the target named is T1, Transthyretin (Homo sapiens, UniProt P02766). The test is described as follows: Inhibition of human transthyretin assessed as amyloid fibril formation at pH 4.4 after 72 hrs relative to control. Also noted: scale not given: the % may be the effect or the level left.
For test [2], the target named is T1, Transthyretin. The test is described as follows: Inhibition of human transthyretin fibril formation at pH 4.4 after 72 hrs.

For `O=C(O)c1ccccc1Nc1cccc(C(F)(F)F)c1` [FLUFENAMIC ACID], on Transthyretin [1], the Activity is 14%. This compound also registered an IC50 against Transthyretin [2] of 2900 nM.
